Assay [1] can be described thus: Binding of pyridinium cations to sepharose-immobilized heparin (spectrophotometric). Particulars: immobilized heparin 25 mg/mL, tested compounds 20÷100 μM in water, 5 minutes, room temperature. The text has this: The presence of the heparin in the pyridinium salt solution changes the absorption spectrum of the salt through the non-specific electrostatic interactions of pyridinium cations with negatively charged heparin moieties. The use of water-insoluble sepharose-immobilized heparin which binds some fraction of pyridinium cations causes the decrease of the concentration of the salt in the solution.
At the high excess of the immobilized heparin in relation to the pyridinium salt concentration the degree of binding depends only on the heparin concentration. It allows, by using the experimental methodology described below, to estimate the degree of binding of different pyridinium compounds to heparin, provided that analogical concentrations of pyridinium salts and constant concentration of sepharose-immobilized heparin are used.
To estimate a degree of binding of the pyridinium_compounds with heparin spectrophotometric method based on the absorption measurements of aqueous solutions of tested compounds at 20÷100 μM before and after a contact with heparin was used.
The suspensions of immobilized heparin with the tested compounds were then placed into Eppendorf microtubes and centrifuged at 13 000 rpm for 4 minutes using FORCE 1418 microcentrifuge from Labnet Int. (Edison, N.J., USA). The UV-Vis absorption spectra of the resulting clear supernatants was measured with Perkin Elmer Lambda 40 spectrophotometer. All measurements were performed at room temperature. The degree of binding was estimated based on comparison of integrated area under the absorption curve for the solutions incubated and non-contacted with heparin.

The test system of assay [2] is platelet-rich thrombus. Particulars: Table 2; known anti-thrombotic activity, documented in WO 2005/067927; cited from earlier work.
Assay [3] relates to platelet-rich thrombus. Nature of the assay: Thrombolytic response in vivo in rats with extracorporeal circulation (thrombus on collagen strip). Set-up: species or system Wistar rats. To be noted: for thrombolytic response (in words) / thrombolytic response, maxima: 30 mg/kg intravenous; for thrombolytic response (in words): Wistar rats; for Thrombolytic response: Table 3, trigonelline and its thermal decomposition products. Here is the method: Thrombolytic activity was assayed by the method developed originally by Gryglewski et al., (Gryglewski R J, Korbut R, Ocetkiewicz A, Stachura J. In vivo method for quantitation for anti-platelet potency of drugs. Naunyn Schmiedebergs Arch Pharmacol 1978; 302:25-30; Gryglewski R J 1978, Gryglewski et al., 2001). The scheme of the method is shown on FIG. 1.
Wistar rats (body weight of 300-350 g) were anaesthetised (thiopental 95 mg/kg i.p) and heparinised (800 U/kg i.v.). Caniules were placed in arteries and connected from the left carotid artery vein with a pressure sensor and from the right carotid artery through heated (37° C.) line to peristaltic pomp. The blood from carotid artery was pumped to the extracorporeal circulation were it superfused (1.5 ml/min) a 3 cm collagen strip excised from Achilles tendon hung on a spring-balanced auxotonic lever of a Harvard 386 isotonic transducer and the weight of the collagen strip was continuously registered. After superfusion the blood was returned to the circulation of an animal. During superfusion a thrombus made of platelets aggregates stuck in the fibrin network (microscopically visualized by the Weigert method) was formed on the surface of the collagen strip. A pressure and the thrombus weight were continuously recorded.
Then the trigonelline thermolysate, 1-methylpyridine or 1,4-dimethylpyridine were injected intravenously into the femoral vein (30 mg·kg^−1).

Assay [4] relates to Zucker fatty rats (fa/fa). Nature of the assay: Antidiabetic effects in the rat model of metabolic syndrome (glucose injection). The class given is in vivo. To be noted: 7 days treatment (thermolysate 100 mg/kg, metformin 500 mg/kg), glucose 2 g/kg i.p., 0-90 minutes.
Method: After 7 days glucose was injected at 2 g/kg (i.p.) and postprandial hyperglycemia was analyzed in the following periods: 0, 15, 30, 60 and 90 minutes after the injection of glucose.
For another assay, the system named is Balb/c mice. Briefly: Hepatoprotective effect in mice model of acute liver injury (Concanavalin A-induced hepatitis). Format: in vivo. Particulars: 100 mg/kg per os for 7 days, ConA 20 mg/kg i.v., 8 hours later. The method, then: Balb/c mice at the age of 2 months were treated for 7 days with 1,4-dimethylpyridinium chloride (100 mg/kg, per os) or were left untreated and then mice were injected with Concanavalin A (ConA) inducing T cell-mediated hepatitis. ConA was injected intravenously at a dose of 20 mg/kg and 8 hours later liver injury was assessed on the basis of transaminase (AST) level in plasma.

Structures are written as SMILES. “Also recorded” adds a separate entry of the source. Where two headings read alike, the source gives them in different places.

The values that follow come from patent US8377972B2, “Use of quaternary pyridinium compounds for vasoprotection and/or hepatoprotection” (Trigendo Sp. zo.o., priority 2007, dated 2013).

Turning to `Cc1cc[n+](C)cc1C(=O)[O-]` [4MeTryg, 4-methyltrigonelline], the Degree of binding in assay [1] is on record as >5%.

As to `CC(=O)c1ccc[n+](C)c1` [MAP^+, 1-methyl-3-acetyl-pyridine], the Thrombolytic response result with platelet-rich thrombus [2] is listed as “yes”. Moreover, in assay [1], the Degree of binding is on record as >25%.

Regarding `Cc1cccc[n+]1C` [12-DMP^+, 1,2-dimethylpyridine], the Degree of binding in assay [1] is given as >15%.

As for `C[n+]1cccc(C(=O)NCO)c1` [MNAF^+, 1-methyl-N′-(hydroxy-methyl) nicotinamide], the Thrombolytic response result in the assay with platelet-rich thrombus [2] is “yes”. Also, the Degree of binding in assay [1] is >35%.

With `C[n+]1cccc(C(N)=O)c1` [MNA^+, 1-methyl-nicotinamide], in the assay with platelet-rich thrombus [2], the Thrombolytic response result was “yes”. Besides, the Degree of binding in assay [1] was >45%.

For `C[n+]1cccc(C(=O)[O-])c1` [Tryg, trigonelline], in the assay on platelet-rich thrombus [3], the “thrombolytic response (in words)” value is “lack of significant thrombolytic response; also recorded: did not induce significant thrombolytic response” and the Thrombolytic response result is recorded as “no”. The Degree of binding entry in assay [1] is recorded as “≈0%”.

As for `Cn1cc(C(N)=O)ccc1=O` [2-PYR, 1-methyl-2-pyridone-5-carboxamide], in the assay with platelet-rich thrombus [2], the Thrombolytic response result is given as “no”. Also, the Degree of binding in assay [1] was >5%.

For `NC(=O)c1ccc[n+]([O-])c1` [N—OX, nicotinamide N-oxide], the Degree of binding in assay [1] was >10%.

As to `C[n+]1ccccc1` [MP^+, 1-methylpyridine], in the assay on platelet-rich thrombus [3], the “thrombolytic response (in words)” value is on record as “moderate thrombolytic response” and the Thrombolytic response entry is “yes”. Further, in assay [1], the Degree of binding is on record as >25%.

Take `CN(C)C(=N)N=C(N)N` [metformin]: the “postprandial hyperglycemia induced by glucose injection” value in assay [4] is “decreased postprandial hyperglycemia”.

In the case of `Cc1cc[n+](C)cc1` [14-DMP^+, 1,4-dimethylpyridine], the Thrombolytic response entry in the assay with platelet-rich thrombus [3] was “yes”. The “transaminase (AST) level in plasma after ConA injection” value with Balb/c mice was “prevented a rise in AST levels”. Moreover, the Degree of binding in assay [1] was >20%.

In the case of `O=C(O)c1cccnc1` [NC, nicotinic acid], in the assay with platelet-rich thrombus [3], the “thrombolytic response, maxima” value was determined as 5±0.9% and the “thrombolytic response (in words)” value is “lack of significant thrombolytic response”. Further, in the assay on platelet-rich thrombus [2], the Thrombolytic response result is “no”. Besides, the Degree of binding in assay [1] was >40%.

For `NC(=O)c1cccnc1` [NA, nicotinamide], in the assay on platelet-rich thrombus [3], the “thrombolytic response, maxima” value turned out to be 9±0.6% and the “thrombolytic response (in words)” value is on record as “lack of significant thrombolytic response”. For the same compound, the Thrombolytic response result in the assay with platelet-rich thrombus [2] is “no”. For the same compound, the Degree of binding entry in assay [1] is recorded as “≈0%”.
